Values of other authors, collected in patent US20040147564A1, “Combinations of glimepiride and the thiazolidinedione for treatment of diabetes” (priority 2003, published 2004).

Legend:
[1] = not given; remark: listed apart in the source
[2] = not given; remark: listed apart in the source

CN(CCOc1ccc(CC2SC(=O)NC2=O)cc1)c1ccccn1 (stereo not drawn) [Rosiglitazone, rosiglitazone]
Solubility in buffered aqueous solution (pH of 2.3): readily soluble

CCC1=C(C)CN(C(=O)NCCc2ccc(S(=O)(=O)NC(=O)N[C@H]3CC[C@H](C)CC3)cc2)C1=O [glimepiride, 1-[[p-[2-(3-ethyl-4-methyl-2-oxo-3-pyrroline-1-carboxamido)ethyl]phenyl]sulfonyl]-3-(trans-4-methylcyclohexyl)urea]
Elimination half-life ([1]; at steady state after oral administration): 5 to 8 h | Terminal half-life ([1]; in vivo): more than 5 hours | Reduction of absolute HbA1c levels ([2]; human, in vivo): 1-2% | Increase of plasma insulin levels ([2]; patients with type 2 diabetes): ≤ 50% | Solubility in water (at 25° C.): ≤ 100 µg/mL
